The record followed here is the NIST ThermoML archive (doi:10.1021/acs.jced.7b00937).

The nature of this data set: mn = molality of the nth substance listed, in mol/kg. The note with it: 100 kPa, Liquid, Capillary tube (Ostwald / Ubbelohde) method.

Numbers after ± are expanded uncertainties.

One may read the viscosity as the resistance of a fluid to flow. In the case of `Cc1ncc(CO)c(CO)c1O.Cl` [5-hydroxy-6-methyl-3,4-pyridinedimethanol hydrochloride] + O, the viscosity reads like this: (288.15 K, m1 = 0.05) 1.16 ± 0.021 mPa·s; (288.15 K, m1 = 0.15) 1.209 ± 0.021 mPa·s; (288.15 K, m1 = 0.25) 1.256 ± 0.021 mPa·s; (288.15 K, m1 = 0.35) 1.304 ± 0.021 mPa·s; (298.15 K, m1 = 0.05) 0.912 ± 0.021 mPa·s; (298.15 K, m1 = 0.15) 0.944 ± 0.021 mPa·s. The viscosity came out at 0.982 ± 0.021 mPa·s (298.15 K, m1 = 0.25); 1.019 ± 0.021 mPa·s (298.15 K, m1 = 0.35); 0.736 ± 0.02 mPa·s (308.15 K, m1 = 0.05); 0.761 ± 0.021 mPa·s (308.15 K, m1 = 0.15); 0.791 ± 0.021 mPa·s (308.15 K, m1 = 0.25); 0.82 ± 0.021 mPa·s (308.15 K, m1 = 0.35). For the same compound, the viscosity is, setting by setting: (318.15 K, m1 = 0.05) 0.607 ± 0.02 mPa·s; (318.15 K, m1 = 0.15) 0.634 ± 0.02 mPa·s; (318.15 K, m1 = 0.25) 0.656 ± 0.02 mPa·s; (318.15 K, m1 = 0.35) 0.68 ± 0.02 mPa·s.
Turning to `Cc1ncc(C[n+]2csc(CCO)c2C)c(N)n1.Cl.[Cl-]` [thiamine hydrochloride] + O, the viscosity came to 1.179 ± 0.021 mPa·s (288.15 K, m1 = 0.05); 1.27 ± 0.021 mPa·s (288.15 K, m1 = 0.15); 1.368 ± 0.021 mPa·s (288.15 K, m1 = 0.25); 1.473 ± 0.022 mPa·s (288.15 K, m1 = 0.35); 0.917 ± 0.021 mPa·s (298.15 K, m1 = 0.05); 0.986 ± 0.021 mPa·s (298.15 K, m1 = 0.15). Besides, the viscosity reads like this: (298.15 K, m1 = 0.25) 1.059 ± 0.021 mPa·s; (298.15 K, m1 = 0.35) 1.146 ± 0.021 mPa·s; (308.15 K, m1 = 0.05) 0.748 ± 0.021 mPa·s; (308.15 K, m1 = 0.15) 0.803 ± 0.021 mPa·s; (308.15 K, m1 = 0.25) 0.851 ± 0.021 mPa·s; (308.15 K, m1 = 0.35) 0.91 ± 0.021 mPa·s. Further, the viscosity by setting is: (318.15 K, m1 = 0.05) 0.615 ± 0.02 mPa·s; (318.15 K, m1 = 0.15) 0.658 ± 0.02 mPa·s; (318.15 K, m1 = 0.25) 0.703 ± 0.02 mPa·s; (318.15 K, m1 = 0.35) 0.749 ± 0.021 mPa·s.
